Test results: patent US20190367516A1 (Bayer Pharma Aktiengesellschaft, priority 2015, published 2019)
Like-named read-outs stand apart in the source and are kept apart here.

Target: T1, human M2 receptor (Homo sapiens, UniProt P08172)
T1 sequence (P08172 1-466): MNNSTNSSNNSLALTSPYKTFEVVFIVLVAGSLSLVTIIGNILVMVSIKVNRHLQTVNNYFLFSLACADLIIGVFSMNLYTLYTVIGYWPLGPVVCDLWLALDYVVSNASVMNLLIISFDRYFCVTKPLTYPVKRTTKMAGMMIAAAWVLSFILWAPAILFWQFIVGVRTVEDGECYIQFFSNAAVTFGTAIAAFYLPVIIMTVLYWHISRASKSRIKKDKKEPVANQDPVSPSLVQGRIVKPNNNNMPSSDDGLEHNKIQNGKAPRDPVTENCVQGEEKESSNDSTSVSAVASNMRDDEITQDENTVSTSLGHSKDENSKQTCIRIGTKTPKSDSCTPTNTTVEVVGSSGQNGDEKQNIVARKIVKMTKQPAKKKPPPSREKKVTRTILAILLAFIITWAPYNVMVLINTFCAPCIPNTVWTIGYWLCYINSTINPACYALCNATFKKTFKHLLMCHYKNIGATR
Details: for EC50: Receptor activity EC50, allosteric potency at EC20 acetylcholine, in some cases mean of two or more determinations

[1] = read-out: Efficiency, boosting of the acetylcholine effect at EC20 acetylcholine concentration, M2-GIRK1/4 reporter cells

Compound | EC50 (M2-GIRK1/4 reporter cells) | Emax [1] | Emax (read-out: Efficiency)
O=C(NC1(C(F)(F)F)CCC1)c1cn(-c2c(F)cc(F)cc2F)c2nc(N3C[C@@H](O)[C@H](O)C3)ccc2c1=O [Example 625, 7-[(3R,4R)-3,4-Dihydroxypyrrolidin-1-yl]-4-oxo-N-[1-(trifluoromethyl)cyclobutyl]-1-(2,4,6-trifluorophenyl)-1,4-dihydro-1,8-naphthyridine-3-carboxamide] | 43 nM | 100% | –
O=C(N[C@H](C1CC1)C(F)(F)F)c1cn(-c2c(F)cccc2F)c2nc(N3CCNC3=O)ccc2c1=O [Example 629, N-[(1R)-1-Cyclopropyl-2,2,2-trifluoroethyl]-1-(2,6-difluorophenyl)-4-oxo-7-(2-oxoimidazolidin-1-yl)-1,4-dihydro-1,8-naphthyridine-3-carboxamide] | 44 nM | 100% | –
O=C(N[C@@H](C1CC1)C(F)(F)F)c1cn(-c2c(F)cc(F)cc2F)c2nc(N3C[C@@H](O)[C@@H](O)C3)ccc2c1=O [Example 630, N-[(1S)-1-Cyclopropyl-2,2,2-trifluoroethyl]-7-[(3R,4S)-3,4-dihydroxypyrrolidin-1-yl]-4-oxo-1-(2,4,6-trifluorophenyl)-1,4-dihydro-1,8-naphthyridine-3-carboxamide] | 48 nM | – | 100%
O=C(NC1(CC(F)(F)F)CC1)c1cn(-c2c(F)cc(F)cc2F)c2nc(N3C[C@@H](O)CC3=O)ccc2c1=O [Example 632, 7-[(4S)-4-Hydroxy-2-oxopyrrolidin-1-yl]-4-oxo-N-[1-(2,2,2-trifluoroethyl)cyclopropyl]-1-(2,4,6-trifluorophenyl)-1,4-dihydro-1,8-naphthyridine-3-carboxamide] | 49 nM | 100% | –
COC(=O)N1CCN(c2ccc3c(=O)c(C(=O)NC45CC(C4)C5)cn(-c4c(F)cc(F)cc4F)c3n2)CC1 [Example 633, Methyl 4-[6-(bicyclo[1.1.1]pent-1-ylcarbamoyl)-5-oxo-8-(2,4,6-trifluorophenyl)-5,8-dihydro-1,8-naphthyridin-2-yl]piperazine-1-carboxylate] | 52 nM | 93.8% | –
O=C(NC1(CC(F)(F)F)CC1)c1cn(-c2c(F)cc(F)cc2F)c2nc(N3C[C@@H](O)[C@H](O)C3)ccc2c1=O [Example 635, 7-[(3R,4R)-3,4-Dihydroxypyrrolidin-1-yl]-4-oxo-N-[1-(2,2,2-trifluoroethyl)cyclopropyl]-1-(2,4,6-trifluorophenyl)-1,4-dihydro-1,8-naphthyridine-3-carboxamide] | 59 nM | 100% | –
NC(=O)N1CCN(c2ccc3c(=O)c(C(=O)Nc4c(Cl)cccc4Cl)cn(-c4c(F)cc(F)cc4F)c3n2)CC1 [Example 636] | 60 nM | 98.1% | –
CC[C@H](NC(=O)c1cn(-c2c(F)cccc2F)c2nc(N3CCNC3=O)ccc2c1=O)C(F)(F)F [Example 637, 1-(2,6-Difluorophenyl)-4-oxo-7-(2-oxoimidazolidin-1-yl)-N-[(2)-1,1,1-trifluorobutan-2-yl]-1,4-dihydro-1,8-naphthyridine-3-carboxamide] | 60 nM | 93% | –
CC[C@@H](NC(=O)c1cn(-c2c(F)cccc2F)c2nc(N3CCNC3=O)ccc2c1=O)C(F)(F)F [Example 638, 1-(2,6-Difluorophenyl)-4-oxo-7-(2-oxoimidazolidin-1-yl)-N-[(2R)-1,1,1-trifluorobutan-2-yl]-1,4-dihydro-1,8-naphthyridine-3-carboxamide] | 63 nM | 100% | –
CC[C@@H](NC(=O)c1cn(-c2ccc(F)cc2F)c2nc(N3C(=O)CC(O)C3C)ccc2c1=O)C(F)(F)F (stereo partly drawn) [Example 640, 1-(2,4-Difluorophenyl)-7-[3-hydroxy-2-methyl-5-oxopyrrolidin-1-yl]-4-oxo-N-[(2R)-1,1,1-trifluorobutan-2-yl]-1,4-dihydro-1,8-naphthyridine-3-carboxamide] | 69 nM | 91.3% | –
COC1(C)CN(c2ccc3c(=O)c(C(=O)NC45CC(C4)C5)cn(-c4c(F)cc(F)cc4F)c3n2)C1 [Example 641, N-(Bicyclo[1.1.1]pent-1-yl)-7-(3-methoxy-3-methylazetidin-1-yl)-4-oxo-1-(2,4,6-trifluorophenyl)-1,4-dihydro-1,8-naphthyridine-3-carboxamide] | 71 nM | 100% | –
O=C(N[C@@H](C1CC1)C(F)(F)F)c1cn(-c2c(F)cc(F)cc2F)c2nc(N3C[C@H](O)[C@@H](O)C3)ccc2c1=O [Example 642, N-[(1 S)-1-Cyclopropyl-2,2,2-trifluoroethyl]-7-[(3S,4S)-3,4-dihydroxypyrrolidin-1-yl]-4-oxo-1-(2,4,6-trifluorophenyl)-1,4-dihydro-1,8-naphthyridine-3-carboxamide] | 72 nM | – | 100%
CC[C@@H](NC(=O)c1cn(-c2c(Cl)cc(F)cc2Cl)c2nc(N3C[C@@H](O)[C@H](O)C3)ccc2c1=O)C(F)(F)F [Example 643, 1-(2,6-Dichloro-4-fluorophenyl)-7-[(3R,4R)-3,4-dihydroxypyrrolidin-1-yl]-4-oxo-N-[(2R)-1,1,1-trifluorobutan-2-yl]-1,4-dihydro-1,8-naphthyridine-3-carboxamide] | 73 nM | 92% | –
O=C(N[C@@H](C1CC1)C(F)(F)F)c1cn(-c2c(F)cccc2F)c2nc(N3CCNC3=O)ccc2c1=O [Example 644, N-[(1 S)-1-Cyclopropyl-2,2,2-trifluoroethyl]-1-(2,6-difluorophenyl)-4-oxo-7-(2-oxoimidazolidin-1-yl)-1,4-dihydro-1,8-naphthyridine-3-carboxamide] | 74 nM | 85% | –
CC[C@@H](NC(=O)c1cn(-c2c(Cl)cccc2Cl)c2nc(N3C[C@@H](O)CC3=O)ccc2c1=O)C(F)(F)F [Example 645, 1-(2,6-Dichlorophenyl)-7-[(4S)-4-hydroxy-2-oxopyrrolidin-1-yl]-4-oxo-N-[(2R)-1,1,1-trifluorobutan-2-yl]-1,4-dihydro-1,8-naphthyridine-3-carboxamide] | 74 nM | – | 83%
O=C(N[C@H](C1CC1)C(F)(F)F)c1cn(-c2c(Cl)cc(F)cc2Cl)c2nc(N3CCNC3=O)ccc2c1=O [Example 647, N-[(1R)-1-Cyclopropyl-2,2,2-trifluoroethyl]-1-(2,6-dichloro-4-fluorophenyl)-4-oxo-7-(2-oxoimidazolidin-1-yl)-1,4-dihydro-1,8-naphthyridine-3-carboxamide] | – | 92% | –
CC[C@@H](NC(=O)c1cn(-c2c(Cl)cc(F)cc2Cl)c2nc(N3CCNC3=O)ccc2c1=O)C(F)(F)F [Example 649, 1-(2,6-Dichloro-4-fluorophenyl)-4-oxo-7-(2-oxoimidazolidin-1-yl)-N-[(2R)-1,1,1-trifluorobutan-2-yl]-1,4-dihydro-1,8-naphthyridine-3-carboxamide] | 83 nM | 94% | –
NC(=O)N1CCN(c2ccc3c(=O)c(C(=O)N[C@H](C4CC4)C(F)(F)F)cn(-c4c(F)cc(F)cc4F)c3n2)CC1 [Example 650, 7-(4-Carbamoylpiperazin-1-yl)-N-[(1R)-1-cyclopropyl-2,2,2-trifluoroethyl]-4-oxo-1-(2,4,6-trifluorophenyl)-1,4-dihydro-1,8-naphthyridine-3-carboxamide] | 83 nM | 100% | –
O=C(Nc1c(Cl)cccc1Cl)c1cn(-c2ccc(F)cc2F)c2nc(N3C[C@@H](O)[C@@H](O)C3)ccc2c1=O [Example 651, N-(2,6-Dichlorophenyl)-1-(2,4-difluorophenyl)-7-[(3R,4S)-3,4-dihydroxypyrrolidin-1-yl]-4-oxo-1,4-dihydro-1,8-naphthyridine-3-carboxamide] | 86 nM | 95% | –
CC[C@@H](NC(=O)c1cn(-c2c(Cl)cccc2Cl)c2nc(N3CC4CC4(O)C3)ccc2c1=O)C(F)(F)F (stereo partly drawn) [Example 652, 1-(2,6-Dichlorophenyl)-7-[1-hydroxy-3-azabicyclo[3.1.0]hex-3-yl]-4-oxo-N-[(2R)-1,1,1-trifluorobutan-2-yl]-1,4-dihydro-1,8-naphthyridine-3-carboxamide] | 89 nM | 80% | –
O=C(NC12CC(C1)C2)c1cn(-c2c(F)cc(F)cc2F)c2nc(N3CCNC3=O)ccc2c1=O [Example 653, N-(Bicyclo[1.1.1]pent-1-yl)-4-oxo-7-(2-oxoimidazolidin-1-yl)-1-(2,4,6-trifluorophenyl)-1,4-dihydro-1,8-naphthyridine-3-carboxamide] | 89 nM | 86.5% | –
CC[C@H](NC(=O)c1cn(-c2c(Cl)cc(F)cc2Cl)c2nc(N3CCNC3=O)ccc2c1=O)C(F)(F)F [Example 654, 1-(2,6-Dichloro-4-fluorophenyl)-4-oxo-7-(2-oxoimidazolidin-1-yl)-N-[(2S)-1,1,1-trifluorobutan-2-yl]-1,4-dihydro-1,8-naphthyridine-3-carboxamide] | 93 nM | 84% | –
CC1(NC(=O)c2cn(-c3c(F)cc(F)cc3F)c3nc(N4C[C@@H](O)[C@H](O)C4)ccc3c2=O)CC(F)(F)C1 [Example 655, N-(3,3-Difluoro-1-methylcyclobutyl)-7-[(3R,4R)-3,4-dihydroxypyrrolidin-1-yl]-4-oxo-1-(2,4,6-trifluorophenyl)-1,4-dihydro-1,8-naphthyridine-3-carboxamide] | 97 nM | 98% | –
